29 compounds from patent US9321762B2, “Quinazoline compounds, method for preparing the same and use thereof” (DEVELOPMENT CENTER FOR BIOTECHNOLOGY, priority 2013, dated 2016) can be followed below.

A value given as a limit tells only on which side of the number the result lay.

In the first test the target is T1, B-Raf kinase (Homo sapiens, UniProt P15056).
T1 construct: purchased Upstate Biotechnology
T1 sequence (P15056 whole entry): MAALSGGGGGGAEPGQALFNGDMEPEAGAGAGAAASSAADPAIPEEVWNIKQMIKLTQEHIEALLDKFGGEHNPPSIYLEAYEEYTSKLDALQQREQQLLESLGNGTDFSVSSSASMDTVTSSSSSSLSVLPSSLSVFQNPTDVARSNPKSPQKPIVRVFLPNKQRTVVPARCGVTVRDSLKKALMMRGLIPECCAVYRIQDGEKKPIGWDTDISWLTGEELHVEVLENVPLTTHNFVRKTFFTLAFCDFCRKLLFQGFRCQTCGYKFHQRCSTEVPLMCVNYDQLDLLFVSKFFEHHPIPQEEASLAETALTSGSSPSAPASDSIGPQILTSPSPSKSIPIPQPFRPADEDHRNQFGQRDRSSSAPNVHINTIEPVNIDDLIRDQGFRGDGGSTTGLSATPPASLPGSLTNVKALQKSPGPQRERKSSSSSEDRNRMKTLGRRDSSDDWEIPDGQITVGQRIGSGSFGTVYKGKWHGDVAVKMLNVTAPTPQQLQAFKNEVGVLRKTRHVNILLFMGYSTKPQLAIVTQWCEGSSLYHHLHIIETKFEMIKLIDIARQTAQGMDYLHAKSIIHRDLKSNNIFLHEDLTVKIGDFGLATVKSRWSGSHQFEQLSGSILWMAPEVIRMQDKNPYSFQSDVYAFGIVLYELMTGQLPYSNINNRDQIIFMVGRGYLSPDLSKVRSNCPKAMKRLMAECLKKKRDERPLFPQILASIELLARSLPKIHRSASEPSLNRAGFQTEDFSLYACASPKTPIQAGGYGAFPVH
The test can be described thus: B-Raf kinase assay ([33P] incorporation into MEK1(K97R)). In kind it is biochemical. To be noted: class symbols; 8 μM ATP; read-out: IC50 against B-Raf kinase. The procedure: Inhibition of kinase activity by a test compound disclosed herein was estimated by quantifying the amount of [^33P] incorporation of a substrate in the presence of the test compound. Standard assay conditions were 5 ng of recombinant B-Raf kinase (Upstate Biotechnology) with 500 ng MEK1(K97R) in assay buffer (8 μM ATP, 0.5 μCi [^33P]ATP (specific activity 3000 Ci/mmol, PerkinElmer), 50 mM Tris/HCl (pH7.5), and 1 mM EGTA, 1 mM Na3VO4, 1% 2-mercaptoethanol, 0.1% Brij 35, and 0.2 mg/ml BSA) in a final volume of 25 μL. Reactions were incubated at 30° C. for 30 min and stopped by adding 3% phosphoric acid, harvested onto a 96-well GF/B UniFilter (PerkinElmer) using a unifilter harvester (PerkinElmer), and counted with a TopCount microplate scintillation counter (PerkinElmer). The IC50 values of inhibitors were determined after carrying out assays at 3-fold serially diluted concentrations of each compound in duplication. The results were analyzed using linear regression software (GraphPad Prism 4; GraphPad Software Inc.).
On to `CCCS(=O)(=O)Nc1ccc(F)c(Nc2ncnc3ccc(-c4cnc(OC)c(N)c4)cc23)c1F` [compound 60, N-(3-(6-(5-amino-6-methoxypyridin-3-yl)quinazolin-4-ylamino)-2,4-difluorophenyl)propane-1-sulfonamide], for which the IC50 (as a rule, the point on the concentration scale where inhibition reaches its midpoint) lay within 300 to 1000 nM.

Turning to `CCCS(=O)(=O)Nc1ccc(F)c(Oc2ncnc3ccc(-c4cccnc4F)cc23)c1F` [compound 34, N-(2,4-difluoro-3-(6-(2-fluoropyridin-3-yl)-quinazolin-4-yloxy)phenyl)propane-1-sulfonamide], the half-maximal inhibitory concentration (IC50) fell in the range of 300 to 1000 nM.

Consider `CCCS(=O)(=O)Nc1ccc(F)c(Nc2ncnc3ccc(N4CCOCC4)cc23)c1F` [compound 42, N-(2,4-difluoro-3-(6-morpholinoquinazolin-4-ylamino)phenyl)propane-1-sulfonamide], for which the 50% inhibitory concentration (IC50) lay within 1000 to 10000 nM.

In the case of `CCCS(=O)(=O)Nc1ccc(F)c(Nc2ncnc3cc(OC)c(-c4ccncc4)cc23)c1F` [compound 30, N-(2,4-difluoro-3-(7-methoxy-6-(pyridin-4-yl)quinazolin-4-ylamino)phenyl)propane-1-sulfonamide], the 50% inhibitory concentration (IC50) is 1000 to 10000 nM.

Consider `CCCS(=O)(=O)Nc1ccc(F)c(Nc2ncnc3ccc(-c4cncc(C(F)(F)F)c4)cc23)c1F` [compound 65, N-(2,4-difluoro-3-(6-(5-(trifluoromethyl)pyridin-3-yl)quinazolin-4-ylamino)phenyl)propane-1-sulfonamide], for which the IC50 was 300 to 1000 nM.

With `CCS(=O)(=O)Nc1ccc(F)c(Nc2ncnc3ccc(-c4cccnc4F)cc23)c1F` [compound 19, N-(2,4-difluoro-3-(6-(2-fluoropyridin-3-yl)quinazolin-4-ylamino)phenyl)ethanesulfonamide], the IC50 lay within 1000 to 10000 nM.

`CCCS(=O)(=O)Nc1ccc(F)c(Nc2ncnc3ccc(-c4cccnc4OC)cc23)c1F` [compound 23, N-(2,4-difluoro-3-(6-(2-methoxypyridin-3-yl)quinazolin-4-ylamino)phenyl)propane-1-sulfonamide]: the IC50 was 1000 to 10000 nM.

As to `CCCS(=O)(=O)Nc1ccc(F)c(Nc2ncnc3ccc(-n4ccnc4)cc23)c1F` [compound 43, N-(3-(6-(1H-imidazol-1-yl)quinazolin-4-ylamino)-2,4-difluorophenyl)propane-1-sulfonamide], the IC50 lay within 1000 to 10000 nM.

As to `CC(C)S(=O)(=O)Nc1ccc(F)c(Nc2ncnc3ccc(-c4cccnc4F)cc23)c1F` [compound 20, N-(2,4-difluoro-3-(6-(2-fluoropyridin-3-yl)quinazolin-4-ylamino)phenyl)propane-2-sulfonamide], the IC50 is 1000 to 10000 nM.

Turning to `CCCS(=O)(=O)Nc1ccc(F)c(Nc2ncnc3ccc(-c4ccc[nH]c4=O)cc23)c1F` [compound 26, N-(2,4-difluoro-3-(6-(2-oxo-1,2-dihydropyridin-3-yl)quinazolin-4-ylamino)phenyl)propane-1-sulfonamide], the IC50 lay in the range of 1000 to 10000 nM.

Turning to `CCCS(=O)(=O)Nc1c(F)ccc(Nc2ncnc3ccc(-c4ccncc4)cc23)c1F` [compound 17, N-(2,6-difluoro-3-(6-(pyridin-4-yl)quinazolin-4-ylamino)phenyl)propane-1-sulfonamide], the IC50 lay in the range of 1000 to 10000 nM.

On to `CCCS(=O)(=O)Nc1ccc(F)c(Nc2ncnc3ccc(-c4cccnc4C#N)cc23)c1F` [compound 64, N-(3-(6-(2-cyanopyridin-3-yl)quinazolin-4-ylamino)-2,4-difluorophenyl)propane-1-sulfonamide], for which the IC50 was in the range of 300 to 1000 nM.

For the compound `CCCS(=O)(=O)Nc1ccc(F)c(Nc2ncnc3ccc(-c4ccc(OCCOC)nc4)cc23)c1F` [compound 33, N-(2,4-difluoro-3-(6-(6-(2-methoxyethoxy)pyridin-3-yl)quinazolin-4-ylamino)phenyl)propane-1-sulfonamide], the 50% inhibitory concentration (IC50) lay in the range of 300 to 1000 nM.

Turning to `C#Cc1ccc2ncnc(Nc3c(F)ccc(NS(=O)(=O)CCC)c3F)c2c1` [compound 49, N-(3-(6-ethynylquinazolin-4-ylamino)-2,4-difluorophenyl)propane-1-sulfonamide], the IC50 is 1000 to 10000 nM.

For `CCCS(=O)(=O)Nc1ccc(F)c(Nc2ncnc3ccc(-c4cccc(N)n4)cc23)c1F` [compound 61, N-(3-(6-(6-aminopyridin-2-yl)quinazolin-4-ylamino)-2,4-difluorophenyl)propane-1-sulfonamide], the IC50 lay within 300 to 1000 nM.

Take `CCCS(=O)(=O)Nc1ccc(F)c(Nc2ncnc3ccc(-c4cccnc4F)c(F)c23)c1F` [compound 56, N-(2,4-difluoro-3-(5-fluoro-6-(2-fluoropyridin-3-yl)quinazolin-4-ylamino)phenyl)propane-1-sulfonamide]: the IC50 lay within 300 to 1000 nM.

For `CS(=O)(=O)Nc1ccc(F)c(Nc2ncnc3ccc(-c4cccnc4F)cc23)c1F` [compound 10, N-(2,4-difluoro-3-(6-(2-fluoropyridin-3-yl)quinazolin-4-ylamino)phenyl)methanesulfonamide], the 50% inhibitory concentration (IC50) was in the range of 1000 to 10000 nM.

Turning to `CCCS(=O)(=O)Nc1ccc(F)c(Nc2ncnc3ccc(-c4cnc(N)c(C)c4)cc23)c1F` [compound 67, N-(3-(6-(6-amino-5-methylpyridin-3-yl)quinazolin-4-ylamino)-2,4-difluorophenyl)propane-1-sulfonamide], the IC50 lay in the range of 300 to 1000 nM.

Turning to `CCCS(=O)(=O)Nc1ccc(F)c(Nc2ncnc3ccc(-c4cccnc4F)cc23)c1` [compound 6, N-(4-fluoro-3-(6-(2-fluoropyridin-3-yl)-quinazolin-4-ylamino)phenyl)propane-1-sulfonamide], the IC50 lay in the range of 1000 to 10000 nM.

Consider `CCCS(=O)(=O)Nc1ccc(F)c(Nc2ncnc3ccc(-c4cccc(N5CCOCC5)n4)cc23)c1F` [compound 41, N-(2,4-difluoro-3-(6-(6-morpholinopyridin-2-yl)quinazolin-4-ylamino)phenyl)propane-1-sulfonamide], for which the IC50 was 300 to 1000 nM.

Turning to `CCCS(=O)(=O)N(C)c1ccc(F)c(N(C)c2ncnc3ccc(-c4cccnc4F)cc23)c1F` [compound 53, N-(2,4-difluoro-3-((6-(2-fluoropyridin-3-yl)-quinazolin-4-yl)(methyl)amino)phenyl)-N-methylpropane-1-sulfonamide], the 50% inhibitory concentration (IC50) fell in the range of 300 to 1000 nM.

The test is the same for the next values; noted with them: given as bound; 8 μM ATP; read-out: IC50 against B-Raf kinase.
As to `CCCS(=O)(=O)Nc1ccc(F)c(Nc2ncnc3ccc(-c4c[nH]nn4)cc23)c1F` [compound 52, N-(3-(6-(1H-1,2,3-triazol-4-yl)quinazolin-4-ylamino)-2,4-difluorophenyl)propane-1-sulfonamide], the concentration for half-maximal inhibition (IC50) is more than 10000 nM.

`CCCS(=O)(=O)Oc1ccc(F)c(Nc2ncnc3ccc(-c4cccnc4F)cc23)c1F` [compound 40, 2,4-difluoro-3-(6-(2-fluoropyridin-3-yl)quinazolin-4-ylamino)phenyl propane-1-sulfonate]: the IC50 is more than 10000 nM.

Regarding `CCCS(=O)(=O)Nc1ccc(F)c(Nc2ncnc3ccc(-c4cccnc4)cc23)c1F` [compound 5, N-(2,4-difluoro-3-(6-(pyridin-3-yl)-quinazolin-4-ylamino)phenyl)propane-1-sulfonamide], the IC50 is more than 10000 nM.

As for `O=S1(=O)CCCN1c1ccc(F)c(Nc2ncnc3ccc(-c4cccnc4F)cc23)c1F` [compound 55, N-(2,4-difluoro-3-(6-(2-fluoropyridin-3-yl)quinazolin-4-ylamino)phenyl)propanesultam], the concentration for half-maximal inhibition (IC50) is more than 10000 nM.

As for `CCCS(=O)(=O)Nc1c(F)ccc(Nc2ncnc3ccc(-c4cccnc4F)cc23)c1F` [compound 16, N-(2,6-difluoro-3-(6-(2-fluoropyridin-3-yl)quinazolin-4-ylamino)phenyl)propane-1-sulfonamide], the IC50 was more than 10000 nM.

In the case of `CCCS(=O)(=O)Nc1cc(Nc2ncnc3ccc(-c4cccnc4F)cc23)c(F)cc1F` [compound 11, N-(2,4-difluoro-5-(6-(2-fluoropyridin-3-yl)-quinazolin-4-ylamino)phenyl)propane-1-sulfonamide], the concentration for half-maximal inhibition (IC50) is more than 10000 nM.

Turning to `CCCS(=O)(=O)Nc1ccc(F)c(Nc2ncnc3cc(NCCN(C)C)c(-c4ccncc4)cc23)c1F` [compound 22, N-(3-(7-(2-(dimethylamino)ethylamino)-6-(pyridin-4-yl)quinazolin-4-ylamino)-2,4-difluorophenyl)propane-1-sulfonamide], the half-maximal inhibitory concentration (IC50) is more than 10000 nM.

For the compound `CCCS(=O)(=O)Nc1ccc(F)c(Nc2ncnc3ccc(-n4cnc5ccccc54)cc23)c1F` [compound 47, N-(3-(6-(1H-benzo[d]imidazol-1-yl)-quinazolin-4-ylamino)-2,4-difluorophenyl)propane-1-sulfonamide], the IC50 is more than 10000 nM.
